Assay results: publication PMC11369432, “Study on the uptake of Gastrodin in the liver” (Heliyon, 2024)
Values joined by “and” are separate entries in the source; they are usually repeats but may differ in a detail not shown here. Equal entries are not always repeated. Structures can show the parent of a compound that is named as a salt.

Columns and labels:
OCTs [1] = assay: Check of the OCTs inhibitor in rats with metformin hydrochloride as substrate; type: in vivo
Source text: (§1) Selecting suitable substrates and inhibitors of OATPs and OCTs is crucial for the experiment. Therefore, our team also used OATPs and OCTs inhibitors. Based on the relevant literature, metformin hydrochloride was selected as the substrate of OCTs, and sodium sulfobromophthalide (BSP) was selected as the substrate of OATPs. […] Most of the previous studies used RIF as an inhibitor of OATPs and epinephrine as an inhibitor of OCTs. We detected drug concentration in blood samples and in the liver of rats. The concentration of metformin hydrochloride was detected by HPLC, and BSP was measured by enzyme-linked immunosorbent assay (ELISA).

[2] = Gastrodin plasma and liver concentrations and Kp in rats, control group (no inhibitor); type: in vivo, Sprague-Dawley (SD) rats
Source text: (§2) The transporters involved in liver transport mainly include organic anion transport peptides (Oatps) and organic cation transporters (Octs), and these two transporters are most expressed in the liver. Therefore, this study chose Oatps and Octs as the research objects. Transport proteins affect drug efficacy and toxicity, the liver is the main organ for the metabolism of substances. […] Using the method of rats in vivo, and choose organic anion transfer peptide Oatps and organic cation transporter Octs inhibitors for the probe, after the transporters are suppressed, intravenous drip Gastrodine, drug concentrations reach homeostasis in blood drug concentration, drug absorption rate and elimination rate balance, illustrate the liver intake transporters saturated. Using HPLC determination of drug concentration in liver and blood at this time the ratio of the Kp (Kp = Css/Css drug concentration of liver blood drug concentration), and under normal circumstances (i.e., without giving inhibitors) compared to Kp, if Kp decrescent, namely that the drug transporters of the substrate. This study explore the intrinsic relationship between the uptake of Gastrodin in rat liver and the organic anion transport peptide Oatps and organic cation transporter Octs, thus preliminarily elucidating the molecular mechanism of Gastrodin uptake in the liver, provide theoretical basis for the safety of clinical combination therapy [[10], [11], [12]].
(§3) The use of experimental animals was approved by the Ethics Committee of Southwest University (Chongqing, China). We strictly followed the National and Institutional guidelines for animal protection and welfare. In total, 18 adult male Sprague-Dawley (SD) rats (SPF, weight: 150 ± 20g) were obtained from the Center of Experimental Animals, Sichuan Province People's Hospital. The rats were kept at room temperature (25 °C) with free access to food and water. They were allowed to adapt to the new environment for one week before starting induction and treatment. Following acclimatization, the experimental rats were randomly divided into three groups (n = 6) as follows: Control group (treated with Gastrodin), ADR group (treated with Gastrodin and adrenalone), and RIF group (treated with Gastrodin and rifampicin).
(§4) To clarify the role of hepatic transport proteins, the concentration of Gastrodin chosen for this experiment was 569 mg kg^−1 (converted from the concentration in mice: rat dose (mg·kg^−1) = mouse dose (mg·kg^−1)/1.44), based on the results of previous studies. An equal dose of Gastrodin was injected before intravenous drip as a loading dose, to ensure that the steady-state blood concentration (Css) of Gastrodin was reached and the transporter protein was saturated by 300 min of intravenous drip. Then, the volume of Gastrodin was computed according to the following formula: drop volume = drop speed (4 μL h^−1 g^−1) × time × weight.
(§5) Gastrodin solution: 1138.9 mg of Gastrodin extract was added to a 10 mL volumetric flask. Physiological saline was added and diluted to prepare a solution with a concentration of 113.89 mg mL^−1. Then, the solution was frozen and stored (administered at 1 mL·200g ^−1 i.v.).
(§6) The rats were fasted for 12 h before the experiment. They had free access to water. The rats were regularly weighed before the initiation of the experiment. The control group first received Gastrodin solution (569 mg kg^−1) through the caudal vein as a loading dose, followed by the caudal injection of a Gastrodin solution (569 mg kg^−1) at a rate of 4 μg h^−1·g^−1. Each rat of the RIF group was given rifampicin 2 mL·200 g^−1 via oral gavage and 1h later 569 mg kg^−1 of Gastrodin was injected. Likewise, the ADR group was injected with adrenalone (0.5 mL·200 g^−1) via the caudal vein, and 0.5 h later 569 mg kg^−1 of Gastrodin was injected. […]

OATPs [3] = assay: Hepatic uptake of Gastrodin in rats after the OATPs inhibitor rifampicin (RIF group); type: in vivo, Sprague-Dawley (SD) rats
Source text: as §2, §3, §4, §5
Rifampicin (RIF) solution: 90 mg of rifampicin was precisely weighed. Then, 30 mL saline was added to prepare 3 mg mL^−1 solution (administered at 2 mL·200 g ^−1 i.g.).
as §6, with “injected.” for “injected. Likewise, the ADR group was injected with adrenalone (0.5 mL·200 g^−1) via the caudal vein, and 0.5 h later 569 mg kg^−1 of Gastrodin was injected.”

OCTs [4] = assay: Hepatic uptake of Gastrodin in rats after the OCTs inhibitor adrenalone (ADR group); type: in vivo, Sprague-Dawley (SD) rats
Source text: as §2, §3, §4, §5
Adrenalone (ADR) solution: 64 mg of […] was weighed precisely and prepared at 8 mg mL^−1 concentration (administered at 0.5 mL·200 g^−1 i.v.) using 30 % PEG400 as solvent.
as §6, with “injected.” for “injected. Likewise, the ADR group was injected with adrenalone (0.5 mL·200 g^−1) via the caudal vein, and 0.5 h later 569 mg kg^−1 of Gastrodin was injected.”

[5] = Stability of Gastrodin solution (room temperature, repeated freeze-thaw); type: physicochemical; settings: Gastrodin solution stored at −20 °C
Description: To verify whether the sample processing and detection methods were stable, we examined both their room temperature stability and their repeated freeze-thaw stability.
Three solutions containing 50 mg mL^−1, 100 mg mL^1, and 500 mg mL^−1 of Gastrodin were first prepared and stored at room temperature. This was then measured every 6 h. Finally, the RSD was calculated, which was examined for its room temperature stability.
Three solutions of the same concentration were prepared as described above and tested immediately after preparation. They were then stored at −20 °C for 21 h, removed to allow thawing, and left at room temperature for 3 h before assay. The test was continued at a low temperature and the RSD was calculated after repeating the assay three times to investigate its repeated freeze-thaw stability.

[6] = set-up: method as in doi:10.4103/pm.pm_307_19; settings: mice, different doses; conforms to a two-compartment model; cited from earlier work
OATPs [7] = assay: Check of the OATPs inhibitor in rats with BSP as substrate; type: in vivo; settings: dose of 30 mg kg^−1, ELISA
Source text: as §1

Q: Which “Hepatic transportation of OCTs in rats” value (OCTs [1]; dose of 20 mg kg^−1, substrate metformin hydrochloride, HPLC) does the source give for `CNCC(=O)c1ccc(O)c(O)c1` [ADR, adrenalone] here?
A: inhibited

Q: With `OCc1ccc(O[C@@H]2O[C@H](CO)[C@@H](O)[C@H](O)[C@H]2O)cc1` [GAS, hydroxyl methyl benzene - beta - D - pyran glucoside] as the molecule, how does the “KP (liver / blood concentration)” value ([2]; Control group, single rats, 300 min) read?
A: 0.2918 and 0.2172 and 0.0618 and 0.3204 and 0.0919

Q: What about the “Plasma concentration of GAS, 90min” value ([2]; Control group, single rats, Gastrodin 569 mg kg^−1 i.v. loading dose plus i.v. drip, 90 min) of the same molecule?
A: 418.6414 µg/mL and 490.4070 µg/mL and 858.0713 µg/mL and 839.0300 µg/mL and 374.1060 µg/mL and 714.8180 µg/mL

Q: And the “Plasma concentration of GAS, 180min” value ([2]; Control group, single rats, Gastrodin 569 mg kg^−1 i.v. loading dose plus i.v. drip, 180 min)?
A: 296.4502 µg/mL and 450.2900 µg/mL and 241.1238 µg/mL and 473.1890 µg/mL and 388.0036 µg/mL and 943.8820 µg/mL

Q: And the “Plasma concentration of GAS, 300min” value ([2]; Control group, single rats, Gastrodin 569 mg kg^−1 i.v. loading dose plus i.v. drip, 300 min)?
A: 160.2300 µg/mL and 435.3740 µg/mL and 690.0752 µg/mL and 482.2634 µg/mL and 537.2563 µg/mL and 961.3480 µg/mL

Q: And the “Liver concentration of GAS” value ([2]; Control group, single rats, liver taken at 300 min)?
A: 46.7539 µg/mL and 94.5472 µg/mL and 42.6760 µg/mL and 154.5100 µg/mL and 49.3480 µg/mL and 165.2782 µg/mL

Q: And the Kp at 300 min ([2]; male, Sprague-Dawley, rat, liver / blood, intravenous, 569 mg kg^−1, Control group, n = 6)?
A: 0.14 ± 0.127

Q: And the “KP (liver / blood concentration)” value (OATPs [3]; RIF group, single rats, 300 min)?
A: 0.0695 and 0.1237 and 0.0037 and 0.0044 and 0.0041 and 0.0042

Q: And the “Liver concentration of GAS” value (OATPs [3]; RIF group, single rats, liver taken at 300 min)?
A: 143.4890 µg/mL and 54.8940 µg/mL and 33.3675 µg/mL and 48.7120 µg/mL and 41.0071 µg/mL and 101.5434 µg/mL

Q: What about the “Plasma concentration of GAS, 90min” value (OATPs [3]; RIF group, single rats, rifampicin 2 mL·200 g^−1 i.g. 1 h before Gastrodin 569 mg kg^−1, 90 min) of the same molecule?
A: 30828.4900 µg/mL and 1684.7620 µg/mL and 8505.0480 µg/mL and 15559.1500 µg/mL and 79163.4800 µg/mL and 26044.6400 µg/mL

Q: And the “Plasma concentration of GAS, 180min” value (OATPs [3]; RIF group, single rats, rifampicin i.g. 1 h before Gastrodin 569 mg kg^−1, 180 min)?
A: 13840.5600 µg/mL and 8435.3490 µg/mL and 24589.4100 µg/mL and 8312.9910 µg/mL and 20131.4400 µg/mL and 4501.0340 µg/mL

Q: What about the “Plasma concentration of GAS, 300min” value (OATPs [3]; RIF group, single rats, rifampicin i.g. 1 h before Gastrodin 569 mg kg^−1, 300 min) of the same molecule?
A: 2063.3640 µg/mL and 8969.1250 µg/mL and 10985.5800 µg/mL and 9971.0380 µg/mL and 23912.4400 µg/mL

Q: And the “Substrate of OATPs” value (OATPs [3]; concluded from lower KP after OATPs inhibitor, rat in vivo)?
A: likely substrate

Q: What about the Kp at 300 min (OATPs [3]; male, Sprague-Dawley, rat, liver / blood, intravenous, RIF group, n = 6, *p < 0.05 vs Control) of the same molecule?
A: 0.035 ± 0.0508

Q: What about the concentration at 300 min (OATPs [3]; male, Sprague-Dawley, rat, plasma, intravenous, RIF group, single rats, rifampicin i.g. 1 h before Gastrodin 569 mg kg^−1, 300 min, read-out: Plasma concentration of GAS, 300min) of the same molecule?
A: 444 µg/mL

Q: And the “KP (liver / blood concentration)” value (OCTs [4]; ADR group, single rats, 300 min)?
A: 0.0645 and 0.0324 and 0.0463 and 0.0716 and 0.0447 and 0.1550

Q: What about the “Plasma concentration of GAS, 90min” value (OCTs [4]; ADR group, single rats, adrenalone 0.5 mL·200 g^−1 i.v. 0.5 h before Gastrodin 569 mg kg^−1, 90 min) of the same molecule?
A: 617.7201 µg/mL and 10576.3600 µg/mL and 1294.1160 µg/mL and 1093.5800 µg/mL and 3877.7610 µg/mL

Q: What about the “Plasma concentration of GAS, 180min” value (OCTs [4]; ADR group, single rats, adrenalone i.v. 0.5 h before Gastrodin 569 mg kg^−1, 180 min) of the same molecule?
A: 650.1415 µg/mL and 3246.9130 µg/mL and 497.0489 µg/mL and 1215.3470 µg/mL and 1883.7120 µg/mL

Q: What about the “Plasma concentration of GAS, 300min” value (OCTs [4]; ADR group, single rats, adrenalone i.v. 0.5 h before Gastrodin 569 mg kg^−1, 300 min) of the same molecule?
A: 2255.8310 µg/mL and 2303.3090 µg/mL and 659.0208 µg/mL and 643.2905 µg/mL and 1871.4590 µg/mL

Q: What about the “Liver concentration of GAS” value (OCTs [4]; ADR group, single rats, liver taken at 300 min) of the same molecule?
A: 25.4541 µg/mL and 73.1891 µg/mL and 106.5988 µg/mL and 47.2096 µg/mL and 28.7519 µg/mL and 290.1262 µg/mL

Q: What about the “Substrate of OCTs” value (OCTs [4]; concluded from lower KP after OCTs inhibitor, rat in vivo) of the same molecule?
A: likely substrate

Q: What about the Kp at 300 min (OCTs [4]; male, Sprague-Dawley, rat, liver / blood, intravenous, ADR group, n = 6, *p < 0.05 vs Control) of the same molecule?
A: 0.0691 ± 0.0444

Q: What about the concentration at 90 min (OCTs [4]; male, Sprague-Dawley, rat, plasma, iv, ADR group, single rats, adrenalone 0.5 mL·200 g^−1 i.v. 0.5 h before Gastrodin 569 mg kg^−1, 90 min, read-out: Plasma concentration of GAS, 90min) of the same molecule?
A: 762 µg/mL

Q: And the concentration at 180 min (OCTs [4]; male, Sprague-Dawley, rat, plasma, iv, ADR group, single rats, adrenalone i.v. 0.5 h before Gastrodin 569 mg kg^−1, 180 min, read-out: Plasma concentration of GAS, 180min)?
A: 445 µg/mL

Q: And the concentration at 300 min (OCTs [4]; male, Sprague-Dawley, rat, plasma, iv, ADR group, single rats, adrenalone i.v. 0.5 h before Gastrodin 569 mg kg^−1, 300 min, read-out: Plasma concentration of GAS, 300min)?
A: 394 µg/mL

Q: And the “Storage time with good stability” value [5]?
A: at least 3 days

Q: And the Pharmacokinetic profile [6]?
A: non-linear

Q: With `CO[C@H]1/C=C/O[C@@]2(C)Oc3c(C)c(O)c4c(O)c(c(/C=N/N5CCN(C)CC5)c(O)c4c3C2=O)NC(=O)/C(C)=C\C=C\[C@H](C)[C@H](O)[C@@H](C)[C@@H](O)[C@@H](C)[C@H](OC(C)=O)[C@@H]1C` [RIF, rifampicin] as the molecule, how does the “Hepatic transport of OATPs in rats” value (OATPs [7]) read?
A: inhibited

Q: Which “Hepatic concentrations of the drug after OCTs inhibitor” value (OCTs [1]; rats, OCTs inhibitor given) does the source give for `CN(C)C(=N)N=C(N)N` [metformin hydrochloride] here?
A: significant reduction
